Measured values as given in PMC9229919, “4-Aminoquinoline-Based Adamantanes as Potential Anticholinesterase Agents in Symptomatic Treatment of Alzheimer’s Disease” (Pharmaceutics, 2022).
Like-named read-outs stand apart in the source and are kept apart here.

How the values were obtained:
[1] = Ferric reducing antioxidant power (FRAP) assay; details: for FRAP: mean ± standard error of three experiments; for antioxidant power lower than that of Trolox: on average;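 as to FRAP: expressed as µM Fe2+ equivalents from an FeSO4·7H2O standard curve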
Summary of the method: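 Compounds at 10 and 100 µM were mixed with FRAP reagent (300 mM acetate buffer pH 3.6, TPTZ in HCl, FeCl3, 10:1:1) and incubated 60 min at 37 °C. Fe^2+-TPTZ formation read at 593 nm against a blank. Values derived from an Fe2SO4·7H2O standard curve, three independent experiments.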

[2] = Reverse-phase thin-layer chromatographic lipophilicity (RF, RM0); type: physicochemical; details: for RM0: intercept of RM = RM0 + bC; for b: slope of RM = RM0 + bC; for RF, Methanol/Water/Hydrochloric acid (conc.), mobile phase I / RF, Dioxane/Water/Hydrochloric acid (conc.), mobile phase II / RF, Methanol/Water/Hydrochloric acid (conc.), mobile phase II / RF, Acetone/Water/Hydrochloric acid (conc.), mobile phase III / RF, Dioxane/Water/Hydrochloric acid (conc.), mobile phase III / RF, Methanol/Water/Hydrochloric acid (conc.), mobile phase III / RF, Dioxane/Water/Hydrochloric acid (conc.), mobile phase IV / RF, Acetone/Water/Hydrochloric acid (conc.), mobile phase IV / RF, Methanol/Water/Hydrochloric acid (conc.), mobile phase IV / RF, Acetone/Water/Hydrochloric acid (conc.), mobile phase IX / RF, Methanol/Water/Hydrochloric acid (conc.), mobile phase IX / RF, Dioxane/Water/Hydrochloric acid (conc.), mobile phase V / RF, Acetone/Water/Hydrochloric acid (conc.), mobile phase V / RF, Methanol/Water/Hydrochloric acid (conc.), mobile phase V / RF, Dioxane/Water/Hydrochloric acid (conc.), mobile phase VI / RF, Acetone/Water/Hydrochloric acid (conc.), mobile phase VI / RF, Methanol/Water/Hydrochloric acid (conc.), mobile phase VI / RF, Acetone/Water/Hydrochloric acid (conc.), mobile phase VII / RF, Methanol/Water/Hydrochloric acid (conc.), mobile phase VII / RF, Acetone/Water/Hydrochloric acid (conc.), mobile phase VIII / RF, Methanol/Water/Hydrochloric acid (conc.), mobile phase VIII: RP-18 silica; for RF, Methanol/Water/Hydrochloric acid (conc.), mobile phase I: I = 90%MeOH/5%H2O/5%HCl; for RF, Dioxane/Water/Hydrochloric acid (conc.), mobile phase II: II = 80%Dioxane/15%H2O/5%HCl; for RF, Methanol/Water/Hydrochloric acid (conc.), mobile phase II: II = 85%MeOH/10%H2O/5%HCl; for RF, Acetone/Water/Hydrochloric acid (conc.), mobile phase III: III = 70%AC/25%H2O/5%HCl; for RF, Dioxane/Water/Hydrochloric acid (conc.), mobile phase III: III = 70%Dioxane/25%H2O/5%HCl; for RF, Methanol/Water/Hydrochloric acid (conc.), mobile phase III: III = 80%MeOH/15%H2O/5%HCl; for RF, Dioxane/Water/Hydrochloric acid (conc.), mobile phase IV: IV = 60%Dioxane/35%H2O/5%HCl; for RF, Acetone/Water/Hydrochloric acid (conc.), mobile phase IV: IV = 65%AC/30%H2O/5%HCl; for RF, Methanol/Water/Hydrochloric acid (conc.), mobile phase IV: IV = 75%MeOH/20%H2O/5%HCl; for RF, Acetone/Water/Hydrochloric acid (conc.), mobile phase IX: IX = 40%AC/55%H2O/5%HCl; for RF, Methanol/Water/Hydrochloric acid (conc.), mobile phase IX: IX = 50%MeOH/45%H2O/5%HCl; for RF, Dioxane/Water/Hydrochloric acid (conc.), mobile phase V: V = 50%Dioxane/45%H2O/5%HCl; for RF, Acetone/Water/Hydrochloric acid (conc.), mobile phase V: V = 60%AC/35%H2O/5%HCl; for RF, Methanol/Water/Hydrochloric acid (conc.), mobile phase V: V = 70%MeOH/25%H2O/5%HCl; for RF, Dioxane/Water/Hydrochloric acid (conc.), mobile phase VI: VI = 40%Dioxane/55%H2O/5%HCl; for RF, Acetone/Water/Hydrochloric acid (conc.), mobile phase VI: VI = 55%AC/40%H2O/5%HCl; for RF, Methanol/Water/Hydrochloric acid (conc.), mobile phase VI: VI = 65%MeOH/30%H2O/5%HCl; for RF, Acetone/Water/Hydrochloric acid (conc.), mobile phase VII: VII = 50%AC/45%H2O/5%HCl; for RF, Methanol/Water/Hydrochloric acid (conc.), mobile phase VII: VII = 60%MeOH/35%H2O/5%HCl; for RF, Acetone/Water/Hydrochloric acid (conc.), mobile phase VIII: VIII = 45%AC/50%H2O/5%HCl; for RF, Methanol/Water/Hydrochloric acid (conc.), mobile phase VIII: VIII = 55%MeOH/40%H2O/5%HCl
Summary of the method: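 Reverse-phase TLC using mobile phases of methanol, acetone or dioxane with water and hydrochloric acid. Methanol varied in 10% steps; development distance 4.5 cm, ambient temperature (22±2 °C). RF measured and RM0 derived from retention.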

recombinant human AChE = target: T1, recombinant human AChE (Homo sapiens, UniProt P22303); assay: biochemical; type: biochemical; details: for IS: IS = Ki(BChE)/Ki(AChE), IS > 1 selective to AChE
T1 construct: gift of Dr Florian Nachon (Armed Forces Biomedical Research Institute, Brétigny-sur-Orge, France)
Summary of the method: (§1)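 Modified Ellman assay with acetylthiocholine and DTNB in 0.1 M sodium phosphate pH 7.4 (enzymes diluted with 0.1% BSA), ≤0.2% DMSO, 25 °C. At least three inhibitor concentrations per substrate level; Ki,app from Hunter–Downs equation, Ki from y-intercept and inhibition type from Ki,app vs [S].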

purified human BChE = target: T2, purified human BChE (Homo sapiens, UniProt P06276); assay: biochemical; type: biochemical
T2 construct: possibly also a gift of Dr Florian Nachon (the sentence is ambiguous)
Summary of the method: as §1

[3] = Acetone/Water/Hydrochloric acid (conc.)
[4] = Dioxane/Water/Hydrochloric acid (conc.)
[5] = Methanol/Water/Hydrochloric acid (conc.)
[6] = log (Ki/µM AChE), read-out: Y Measured 1 log(ki)Ache (converted)
[7] = ± standard error, 25 °C, ATCh substrate, read-out: Ki AChE
[8] = logarithm of Ki in µM, BChE, dependent variable of the QSAR model, read-out: Y Measured 2 log(ki)Bche, log (Ki/µM BChE) (converted)
[9] = ± standard error, 25 °C, ATCh substrate, read-out: Ki BChE

T2 sequence (P06276 29-602): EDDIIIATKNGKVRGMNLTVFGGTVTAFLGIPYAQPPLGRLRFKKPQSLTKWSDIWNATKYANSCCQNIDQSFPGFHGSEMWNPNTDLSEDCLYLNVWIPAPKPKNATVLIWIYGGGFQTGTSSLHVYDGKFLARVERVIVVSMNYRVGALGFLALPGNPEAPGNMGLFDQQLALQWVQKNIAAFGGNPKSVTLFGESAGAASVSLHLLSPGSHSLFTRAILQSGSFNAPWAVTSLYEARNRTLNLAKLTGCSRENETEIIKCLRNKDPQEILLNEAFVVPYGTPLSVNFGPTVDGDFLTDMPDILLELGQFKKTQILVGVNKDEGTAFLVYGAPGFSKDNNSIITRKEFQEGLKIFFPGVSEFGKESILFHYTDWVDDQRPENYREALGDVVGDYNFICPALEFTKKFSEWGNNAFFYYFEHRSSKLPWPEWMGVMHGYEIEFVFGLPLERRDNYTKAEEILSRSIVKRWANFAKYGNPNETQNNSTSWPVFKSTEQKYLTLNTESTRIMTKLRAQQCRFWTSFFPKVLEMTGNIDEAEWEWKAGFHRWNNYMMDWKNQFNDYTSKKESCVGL
T1 sequence (P22303 32-614): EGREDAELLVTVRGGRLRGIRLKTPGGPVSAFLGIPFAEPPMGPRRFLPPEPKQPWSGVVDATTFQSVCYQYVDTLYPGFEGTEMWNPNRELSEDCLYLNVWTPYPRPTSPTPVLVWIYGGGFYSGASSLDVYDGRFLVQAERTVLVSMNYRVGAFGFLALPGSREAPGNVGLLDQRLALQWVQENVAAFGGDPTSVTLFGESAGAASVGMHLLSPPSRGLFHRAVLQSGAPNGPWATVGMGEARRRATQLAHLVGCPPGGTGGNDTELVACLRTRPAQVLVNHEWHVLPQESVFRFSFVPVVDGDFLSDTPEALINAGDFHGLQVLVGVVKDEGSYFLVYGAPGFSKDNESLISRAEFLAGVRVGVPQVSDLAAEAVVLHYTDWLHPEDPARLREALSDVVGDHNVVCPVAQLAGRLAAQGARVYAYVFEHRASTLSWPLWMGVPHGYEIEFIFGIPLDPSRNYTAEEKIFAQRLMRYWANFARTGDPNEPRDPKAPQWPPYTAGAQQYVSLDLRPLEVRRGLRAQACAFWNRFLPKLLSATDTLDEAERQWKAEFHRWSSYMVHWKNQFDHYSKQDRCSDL

SMILES	FRAP ([1]; 10 µM compound)	FRAP ([1]; 100 µM compound)	RM0 [2, 3]	b [2, 3]	RM0 [2, 4]	b [2, 4]	RM0 [2, 5]	b [2, 5]	RF, Methanol/Water/Hydrochloric acid (conc.), mobile phase I [2]	RF, Dioxane/Water/Hydrochloric acid (conc.), mobile phase II [2]	RF, Methanol/Water/Hydrochloric acid (conc.), mobile phase II [2]	RF, Acetone/Water/Hydrochloric acid (conc.), mobile phase III [2]	RF, Dioxane/Water/Hydrochloric acid (conc.), mobile phase III [2]	RF, Methanol/Water/Hydrochloric acid (conc.), mobile phase III [2]	RF, Dioxane/Water/Hydrochloric acid (conc.), mobile phase IV [2]	RF, Acetone/Water/Hydrochloric acid (conc.), mobile phase IV [2]	RF, Methanol/Water/Hydrochloric acid (conc.), mobile phase IV [2]	RF, Acetone/Water/Hydrochloric acid (conc.), mobile phase IX [2]	RF, Methanol/Water/Hydrochloric acid (conc.), mobile phase IX [2]	RF, Dioxane/Water/Hydrochloric acid (conc.), mobile phase V [2]	further results
Clc1ccc2c(Nc3ccc(NCC45CC6CC(CC(C6)C4)C5)cc3)ccnc2c1 [Compound 17]	53 ± 4 µM	512 ± 117 µM	2.018	3.21	0.9452	1.898	2.643	3.504	0.73	0.75	0.69	0.59	0.71	0.54	0.71	0.54	0.53	0.11	0.09	0.49	antioxidant power lower than that of Trolox [1]: ~10 times; RF, Acetone/Water/Hydrochloric acid (conc.), mobile phase V [2]: 0.44; RF, Methanol/Water/Hydrochloric acid (conc.), mobile phase V [2]: 0.45; RF, Dioxane/Water/Hydrochloric acid (conc.), mobile phase VI [2]: 0.35; RF, Acetone/Water/Hydrochloric acid (conc.), mobile phase VI [2]: 0.39; RF, Methanol/Water/Hydrochloric acid (conc.), mobile phase VI [2]: 0.35; RF, Acetone/Water/Hydrochloric acid (conc.), mobile phase VII [2]: 0.33; RF, Methanol/Water/Hydrochloric acid (conc.), mobile phase VII [2]: 0.24; RF, Acetone/Water/Hydrochloric acid (conc.), mobile phase VIII [2]: 0.25; RF, Methanol/Water/Hydrochloric acid (conc.), mobile phase VIII [2]: 0.15; IS (recombinant human AChE): 0.8; Ki (recombinant human AChE; [6]): 3.3 µM; Ki (recombinant human AChE; [7]): 3.3 ± 0.4 µM; decrease in BChE inhibition vs compound 5 (purified human BChE): up to 275 times; Ki (purified human BChE; [8]): 2.5 µM; Ki (purified human BChE; [9]): 2.5 ± 0.5 µM
Clc1ccc2c(Nc3cccc(NCC45CC6CC(CC(C6)C4)C5)c3)ccnc2c1 [Compound 18]	22 ± 6 µM	300 ± 32 µM	2.074	3.191	1.102	2.114	2.664	3.468	0.71	0.75	0.68	0.55	0.71	0.5	0.7	0.5	0.49	0.1	0.09	0.48	antioxidant power lower than that of Trolox [1]: ~20 times; RF, Acetone/Water/Hydrochloric acid (conc.), mobile phase V [2]: 0.4; RF, Methanol/Water/Hydrochloric acid (conc.), mobile phase V [2]: 0.41; RF, Dioxane/Water/Hydrochloric acid (conc.), mobile phase VI [2]: 0.3; RF, Acetone/Water/Hydrochloric acid (conc.), mobile phase VI [2]: 0.36; RF, Methanol/Water/Hydrochloric acid (conc.), mobile phase VI [2]: 0.34; RF, Acetone/Water/Hydrochloric acid (conc.), mobile phase VII [2]: 0.3; RF, Methanol/Water/Hydrochloric acid (conc.), mobile phase VII [2]: 0.22; RF, Acetone/Water/Hydrochloric acid (conc.), mobile phase VIII [2]: 0.21; RF, Methanol/Water/Hydrochloric acid (conc.), mobile phase VIII [2]: 0.13; IS (recombinant human AChE): 0.6; Ki (recombinant human AChE; [6]): 8.99 µM; Ki (recombinant human AChE; [7]): 9 ± 0.8 µM; decrease in BChE inhibition vs compound 5 (purified human BChE): up to 275 times; Ki (purified human BChE; [8]): 5.5 µM; Ki (purified human BChE; [9]): 5.5 ± 0.6 µM
Clc1ccc2c(N3CCN(CC45CC6CC(CC(C6)C4)C5)CC3)ccnc2c1 [Compound 20]	2.9 ± 1.1 µM	6.3 ± 1.6 µM	1.432	2.592	0.3825	1.224	1.5449	2.158	0.67	0.75	0.7	0.69	0.76	0.58	0.78	0.65	0.56	0.28	0.22	0.63	RF, Acetone/Water/Hydrochloric acid (conc.), mobile phase V [2]: 0.58; RF, Methanol/Water/Hydrochloric acid (conc.), mobile phase V [2]: 0.48; RF, Dioxane/Water/Hydrochloric acid (conc.), mobile phase VI [2]: 0.5; RF, Acetone/Water/Hydrochloric acid (conc.), mobile phase VI [2]: 0.51; RF, Methanol/Water/Hydrochloric acid (conc.), mobile phase VI [2]: 0.45; RF, Acetone/Water/Hydrochloric acid (conc.), mobile phase VII [2]: 0.42; RF, Methanol/Water/Hydrochloric acid (conc.), mobile phase VII [2]: 0.38; RF, Acetone/Water/Hydrochloric acid (conc.), mobile phase VIII [2]: 0.35; RF, Methanol/Water/Hydrochloric acid (conc.), mobile phase VIII [2]: 0.31; IS (recombinant human AChE): 2.7; Ki (recombinant human AChE; [6]): 9.4 µM; Ki (recombinant human AChE; [7]): 9.4 ± 0.4 µM; decrease in BChE inhibition vs compound 5 (purified human BChE): up to 275 times; Ki (purified human BChE; [8]): 25.1 µM; Ki (purified human BChE; [9]): 25 ± 1 µM
